Earlier results in US20120015880A1 (priority 2008, published 2012).
Read-outs that look alike come from different tables or passages of the source.

Details: in vivo

- bioavailability (human): ~100%
- half life (human): ~1.5 h
- bioavailability (human, inhaled or intranasal): 3-5%
- range of Cmax between patients (human, inhaled or intranasal): 6-10 fold
- bioavailability (po): far less than one percent
SMILES: NC(=O)CC[C@@H]1NC(=O)[C@H](Cc2ccccc2)NC(=O)[C@H](Cc2ccc(O)cc2)NC(=O)CCSSC[C@@H](C(=O)N2CCC[C@H]2C(=O)N[C@H](CCCN=C(N)N)C(=O)NCC(N)=O)NC(=O)[C@H](CC(N)=O)NC1=O [desmopressin, 1-desamino-8-D-arginine vasopressin]
